Experimental findings from patent publication US20040197411A1, “Acceptably non-hygroscopic formulation intermediate comprising a hygroscopic drug” (priority 2002, published 2004) are described below.

The data set is described as follows: Moisture sorption analysis by dynamic vapor sorption (DVS). In kind it is physicochemical. Particulars: for hygroscopicity and deliquescence: general statement, conditions not given. As to the method: Compound 1 was prepared according to processes described in WO 01/72703. A sample of Compound 1 in substantially dry, amorphous form was subjected to moisture sorption analysis. Dynamic vapor sorption (DVS) was used to determine mass increase (relative to dry mass) was monitored over an adsorption range of 10-70% relative humidity (RH) in increments of 10%. As shown by the moisture sorption isotherm represented in FIG. 1, Compound 1 is hygroscopic.

With `CC(=N)NCCSC[C@](C)(N)C(=O)O.Cl.Cl` [Compound 1, S-[2-[(1-iminoethyl)amino]ethyl]-2-methyl-L-cysteine dihydrochloride], the hygroscopicity and deliquescence entry is “extremely hygroscopic and deliquescent”. Also, the “moisture sorption isotherm (mass increase relative to dry mass)” value (substantially dry, amorphous form, 10-70% RH in increments of 10%, FIG. 1) is “hygroscopic”.

For the compound `CC(=N)NCCSC[C@](C)(N)C(=O)O` [S-[2-[(1-iminoethyl)amino]ethyl]-2-methyl-L-cysteine], the hygroscopicity and deliquescence entry is “extremely hygroscopic and deliquescent”.
